# Assay results taken from patent publication EP0407583A1, “DERIVATIVES OF DICHLOR[…] ACYLAMIDO[…] AND INSECTICIDAL, FU[…] HEMATOCIDAL PREPARATIONS BASED ON THEM” (priority 1989, dated 1990).
# Tests used:
# [1] = tested on: Candida tropicalis; assay: Fungicidal activity, laboratory test on Sabouraud medium; assay type: cell-based; conditions: composition 0.01 % by mass in distilled water
# Experimental: A fungicidal composition based on this compound was prepared which was a solution of it in distilled water at the concentration pf 0.01 % by mass. A fungicidal activity of the composition, according to the invention, was tested in laboratory conditions for inhibiting the growth of fungi such as Candida tropicalis affecting the macosal and skin coats, and internals.
# To this, the Petri dishes containing the Sabouraud growth medium were inoculated with a suspension of microorganisms at the concentration of 5x10^7 cells of fungi in 1 ml.
# The restricted surface areas (7 mm in diameter) were coated with the composition by means of a small metal spatula 4x4 mm in size. In a day of incubating at 37 °C in a thermostat, the composition inhibited the growth of yeast--like fungi. An antifungal activity of the composition was specified by a method of 10-fold serial dilution using Sabouraud's liquid medium in 2 ml of which 2x10^5 cells were introduced. After two days of incubation in the thermostat at 34 °C, a minimum dilution of the substance exerting a fungicidal effect was determined.
# [2] = Solubility (qualitative); conditions: water, alcohols, acetone
# [3] = tested on: Candida albicans; assay: Fungicidal activity, laboratory test on Sabouraud medium; assay type: cell-based; conditions: composition 0.01 % by mass in distilled water
# [4] = tested on: Candida tropicalis; assay: Fungicidal activity, large-scale test on contaminated surfaces and fabrics; assay type: cell-based; conditions: composition 0.01 % by mass; surfaces of ceramics, metal, wood, rubber, fabrics
# Experimental: (§1) The large-scale tests were carried out by using Candida albicans and Candida tropicalis strains 2-day culture of which was diluted with an isotonic solution of sodium chloride to the concentration of 5x10^7 cells in 1 ml.
# (§2) The suspended cell culture was applied onto the surface (7 mm in diameter) of articles made of ceramics, metal, wood and rubber as well as cotton, flannel woollen fabrics which were presterillized.
# (§3) In a day after incubating from the treated surfaces, the washings were taken with a cotton-gauze tampon wetted with Sabouraud^ts liquid medium, immersed into the tubes with a similar medium and placed into a thermostat at 37 °C for two days. Thereafter, the inoculum was introduced in Sabouraud's stiff agar, and the growth records were made by a conventional procedure.
# [5] = tested on: Candida albicans; assay: as above; assay type: cell-based; conditions: composition 0.01 % by mass; surfaces of ceramics, metal, wood, rubber, fabrics
# Experimental: as §1, §2, §3
# [6] = Toxicity LD50 of the compound; assay type: in vivo; conditions: species and route not given
# [7] = tested on: invasion larvae of gall nematodes; assay: Nematocidal effect on invasion larvae, experimental (object glass) test; assay type: in vivo; conditions: 1% solution in distilled water; 100 invasion larvae; 24 hours
# Experimental: A nematocidal effect of the composition, according to the invention, was tested on invasion larvae of gall nematodes. To this end, 1 droplet of a suspension containing 100 invasion larvae of gall nematodes was placed onto the object glasses with cells. 1 droplet of the composition of the invention was added thereinto. 1 drop of distilled water was added to the control cell instead of the composition, according to the invention. The glasses with test and control cells were placed onto Petri dish with a moisten ashless filter, and 24 hours later the killed nematodes were recorded. The tests were 3-fold repeated. The study of a nematocidal activity was conducted in comparison with a known nematocidal composition based on 0,0-dimethyl-0-/2-(N,N'-diethylcarbamoyl)-1-methyl-2-chlorovinyl/ /phosphate.
# [8] = tested on: gall nematodes; assay: Nematocidal effect, field test on affected tomato plants; assay type: in vivo; conditions: 5 m^2 plots of tomato plants affected by nematodes
# Experimental: In the field conditions, the plots of 5 m^2 in size of tomato plants affected by nematodes were treated with the claimed nematocidal compositions and the known nematocides.
SMILES,"Inhibition of growth of fungal colonies, % Candida tropicalis tests laboratory [1]",solubility [2],"Inhibition of growth of fungal colonies, % Candida albicans tests laboratory [3]","Inhibition of growth of fungal colonies, % Candida tropicalis tests large-scale [4]","Inhibition of growth of fungal colonies, % Candida albicans tests large-scale [5]",LD50 [6],"Death of larvae, %, conditions experimental [7]","Death of larvae, %, conditions field [8]"
"O=C(NP(=O)(NNc1ccccc1)NNc1ccccc1)c1ccc(Cl)cc1 [Example 10, para--chlorobenzoylamidophosphoric acid diphenyl hydrazide]",0%,"soluble in water, alcohols, acetone",100%,100%,100%,,,
"O=C(NP(=O)(Sc1ccc(Cl)cc1)Sc1ccc(Cl)cc1)C(Cl)(Cl)CCl [Example 9, di--para-chlorothiophenyl ether of α, α,β-trichloropropio- nylamidophosphoric acid]",100%,"soluble in water, alcohols, acetone",100%,100%,100%,670 ml/k^g,,
"O=C(NP(=O)(Nc1ccc(Cl)cc1)Nc1ccc(Cl)cc1)c1ccc(Br)cc1 [Example 18, para-bromobenzoylamidophosphoric acid di-para-chloroanilide]",,"soluble in water, alcohols, acetone",,,,,89%,92%
